From ChEMBL document CHEMBL1201862, “PubChem BioAssay data set” (2004)
Active and inactive are the calls of the source.

How the values were obtained:
[1] = inhibitors of SNCA 5'UTR-driven reporter translation, confirmation, H4 neuroglioma cells, luminescence (AID 1988); format: functional, cell-based
[2] = inhibitors of SNCA 5'UTR-driven translation, confirmation, luminescence, H4 neuroglioblastoma cells, dose confirmation (AID 2454); format: functional, cell-based;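 further: H4 neuroglioblastoma cells carrying an alpha-synuclein 5'UTR luciferase reporter; potency for inhibition of the luciferase signal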
[3] = C. albicans growth with fluconazole, confirmation, fluorescence, retest (AID 2467); format: functional, cell-based
[4] = molecular target: Heat shock protein HSP 90-alpha (Homo sapiens, UniProt P07900); format: functional, organism-based
[5] = NIH-3T3 fibroblast cytotoxicity, dose response, cytotoxicity control, cell-based, fluorescence, Alamar Blue, secondary assay (AID 2327); format: functional;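 further: NIH-3T3 mouse fibroblasts cultured with fluconazole at 8 µg/mL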
[6] = molecular target: Serine/threonine-protein phosphatase (Candida dubliniensis (strain CD36 / CBS 7987 / NCPF 3949 / NRRLY-17841) (Yeast), UniProt B9W6M3); experiment: calcineurin pathway inhibitors in yeast reporter, dose response, S. cerevisiae, CDRE-lacZ, luminescence, secondary (AID 2388); format: functional, cell-based;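 further: yeast reporter cells carrying a calcineurin-responsive lacZ construct stimulated with calcium chloride; luminescent beta-galactosidase reporter signal in whole cells rather than isolated phosphatase activity; potency for inhibition where a drop in reporter signal means calcineurin blockade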
[7] = luciferase reporter signal reduction – luminescence, H4-C neuroglioblastoma cells, dose response (AID 2458); format: functional, cell-based;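 further: H4 neuroglioblastoma cells stably carrying a luciferase reporter gene fusion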
cells = format: functional, cell-based
[8] = molecular target: ATP-dependent molecular chaperone HSP82 (Candida albicans (strain WO-1) (Yeast), UniProt C4YTQ8); experiment: loss of DOC-induced GRE-beta-galactosidase reporter signal, dose response, Hsp90 inhibitor project, S. cerevisiae, luminescence (AID 2400); format: functional, cell-based;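 further: beta-galactosidase luminescence from glucocorticoid response element reporter as proxy for Hsp90 function; inhibitor potency where signal loss means Hsp90 inhibition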
[9] = enhancers of respiration in Yfh1-depleted yeast, dose response, Friedreich's ataxia, plus single-dose screen (AID 1465); format: functional;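 further: yeast depleted of Yfh1p frataxin homolog grown on glycerol needing respiration; WST-1 tetrazolium dye reduction as measure of cellular dehydrogenase metabolic activity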
Insulin-degrading enzyme = molecular target: T1, Insulin-degrading enzyme (Homo sapiens, UniProt P14735); experiment: Dose Response: Fluorescence polarization-based cell-based high throughput dose response assay for inhibitors of insulin-degrading enzyme (IDE). [Related pubchem assays: 434962 (Primary screen (IDE inhibitors in singlicate)), 449730 (Counterscreen (Cytotoxicity in triplicate)), 435028 (Confirmation (IDE inhibitors in triplicate)), 434984 (Summary …; format: functional
T1 sequence (P14735 whole entry): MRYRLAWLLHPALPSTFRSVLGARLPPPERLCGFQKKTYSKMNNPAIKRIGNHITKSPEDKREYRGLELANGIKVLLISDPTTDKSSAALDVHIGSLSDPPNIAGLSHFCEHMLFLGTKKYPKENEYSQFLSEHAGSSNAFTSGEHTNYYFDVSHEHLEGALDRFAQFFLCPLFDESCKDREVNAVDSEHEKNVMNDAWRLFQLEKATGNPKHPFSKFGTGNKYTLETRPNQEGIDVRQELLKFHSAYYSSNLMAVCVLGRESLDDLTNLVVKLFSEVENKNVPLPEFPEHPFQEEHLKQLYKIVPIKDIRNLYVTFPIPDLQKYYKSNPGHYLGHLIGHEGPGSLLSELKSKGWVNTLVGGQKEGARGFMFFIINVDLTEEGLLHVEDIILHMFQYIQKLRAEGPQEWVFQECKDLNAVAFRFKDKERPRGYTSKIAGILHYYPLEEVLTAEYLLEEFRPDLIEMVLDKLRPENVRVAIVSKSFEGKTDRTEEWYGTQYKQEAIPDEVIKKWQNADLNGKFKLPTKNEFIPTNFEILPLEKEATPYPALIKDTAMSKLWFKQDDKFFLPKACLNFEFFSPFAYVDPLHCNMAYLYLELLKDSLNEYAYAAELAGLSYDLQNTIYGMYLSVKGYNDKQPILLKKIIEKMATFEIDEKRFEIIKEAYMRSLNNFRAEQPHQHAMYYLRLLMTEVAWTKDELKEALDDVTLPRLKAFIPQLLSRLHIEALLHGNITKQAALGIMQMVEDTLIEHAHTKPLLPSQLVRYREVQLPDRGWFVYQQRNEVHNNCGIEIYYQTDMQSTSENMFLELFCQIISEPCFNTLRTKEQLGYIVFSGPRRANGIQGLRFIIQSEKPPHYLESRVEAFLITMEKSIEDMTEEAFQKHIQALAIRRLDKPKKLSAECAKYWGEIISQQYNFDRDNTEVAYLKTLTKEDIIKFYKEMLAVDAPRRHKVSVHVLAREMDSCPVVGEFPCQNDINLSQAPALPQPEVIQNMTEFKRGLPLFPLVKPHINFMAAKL

[10] = Counterscreen for IDE inhibitors: Luminescence-based cell-based high throughput dose response assay to identify compounds that are cytotoxic to HEK cells. [Related pubchem assays: 434962 (Primary screen (IDE inhibitors in singlicate)), 449730 (Counterscreen (Cytotoxicity in triplicate)), 435028 (Confirmation (IDE inhibitors in triplicate)) …; format: functional; conditions: HEK293
Aspartyl aminopeptidase = molecular target: T2, Aspartyl aminopeptidase (Plasmodium falciparum 3D7, UniProt Q8I2J3); experiment: Counterscreen for inhibitors of M1 and M17 aminopeptidases: QFRET-based biochemical high throughput dose response assay for inhibitors of the Plasmodium falciparum M18 Aspartyl Aminopeptidase (PFM18AAP). [Related PubChem assays: 1619 (Screening assay (M17LAP inhibitors).), 1445 (Screening assay (M1AAP inhibitors).)]
T2 sequence (Q8I2J3 whole entry): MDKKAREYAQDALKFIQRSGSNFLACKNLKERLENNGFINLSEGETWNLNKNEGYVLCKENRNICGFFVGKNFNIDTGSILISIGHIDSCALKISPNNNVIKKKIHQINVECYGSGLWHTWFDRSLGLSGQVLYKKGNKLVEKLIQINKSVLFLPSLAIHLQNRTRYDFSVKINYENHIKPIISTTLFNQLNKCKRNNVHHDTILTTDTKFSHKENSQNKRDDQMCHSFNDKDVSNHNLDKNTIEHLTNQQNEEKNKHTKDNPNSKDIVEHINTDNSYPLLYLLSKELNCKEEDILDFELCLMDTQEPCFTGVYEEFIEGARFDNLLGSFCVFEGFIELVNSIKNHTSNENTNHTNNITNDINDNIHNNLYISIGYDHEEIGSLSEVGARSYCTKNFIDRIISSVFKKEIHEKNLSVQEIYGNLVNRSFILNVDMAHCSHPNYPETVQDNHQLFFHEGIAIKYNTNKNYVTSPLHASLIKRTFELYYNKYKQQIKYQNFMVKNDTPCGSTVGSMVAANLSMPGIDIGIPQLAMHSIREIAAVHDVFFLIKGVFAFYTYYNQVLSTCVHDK

Leucine aminopeptidase = Leucine aminopeptidase (Plasmodium falciparum 3D7, UniProt Q8IL11); experiment: P. falciparum M17LAP inhibitors, primary screen, biochemical, fluorogenic H-Leu-NHMec substrate, 1536-well (AID 1619); format: functional
Procathepsin L = Procathepsin L (Homo sapiens, UniProt P07711); experiment: cathepsin L inhibitors, dose response, counter-screen for M1/M17 aminopeptidase inhibitor project, biochemical, QFRET, 1536-well (AID 2214)
[11] = molecular target: T3, Alkaline phosphatase, tissue-nonspecific isozyme (Homo sapiens, UniProt P05186)
T3 sequence (P05186 whole entry): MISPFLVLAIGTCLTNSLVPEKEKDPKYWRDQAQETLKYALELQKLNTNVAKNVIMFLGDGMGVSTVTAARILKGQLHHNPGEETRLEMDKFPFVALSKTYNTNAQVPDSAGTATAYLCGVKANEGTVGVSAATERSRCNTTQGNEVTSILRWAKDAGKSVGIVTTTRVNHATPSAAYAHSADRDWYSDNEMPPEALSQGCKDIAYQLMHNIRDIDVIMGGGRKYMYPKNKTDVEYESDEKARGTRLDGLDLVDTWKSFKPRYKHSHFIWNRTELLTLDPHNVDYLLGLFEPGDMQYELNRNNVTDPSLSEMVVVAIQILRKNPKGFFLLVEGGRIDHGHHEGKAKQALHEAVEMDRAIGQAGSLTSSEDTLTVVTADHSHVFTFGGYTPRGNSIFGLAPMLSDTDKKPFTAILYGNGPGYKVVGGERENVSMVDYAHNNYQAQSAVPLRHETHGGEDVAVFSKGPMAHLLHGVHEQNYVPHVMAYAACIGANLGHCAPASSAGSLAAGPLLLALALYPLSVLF

[12] = molecular target: Sphingosine 1-phosphate receptor 3 (Homo sapiens, UniProt Q99500); experiment: Dose response cell-based high throughput screening assay for antagonists of the Sphingosine 1-Phosphate Receptor 3 (S1P3). [Related pubchem assays: 1429, 485 ]; format: functional
[13] = molecular target: 5-hydroxytryptamine receptor 1E (Homo sapiens, UniProt P28566); experiment: Counterscreen assay for S1P3 antagonists: Dose response cell-based high throughput screening assay to identify antagonists of the 5-Hydroxytryptamine Receptor Subtype 1E (5HT1E). [Related pubchem assays: 1429, 485 ]; format: functional
[14] = molecular target: Mothers against decapentaplegic homolog 3 (Homo sapiens, UniProt P84022); experiment: Smad3 binding inhibitors, lysate ELISA, dose response, cell lysate, secondary confirmation, chemiluminescent ELISA, HEK293 lysate (AID 1058); format: functional
[15] = molecular target: T4, Heat shock factor protein 1 (Mus musculus, UniProt P38532); experiment: HSF1 potentiators in luciferase reporter cells, confirmation, cell-based, NIH3T3, luminescence, dose retest (AID 435004); format: functional;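 further: stress induced by proteasome inhibitor MG132 added 30 min after compound; luciferase reporter driven by HSF1 response element in NIH3T3 cells; actives raise luminescence as potentiators of the MG132 stress response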
T4 sequence (P38532 whole entry): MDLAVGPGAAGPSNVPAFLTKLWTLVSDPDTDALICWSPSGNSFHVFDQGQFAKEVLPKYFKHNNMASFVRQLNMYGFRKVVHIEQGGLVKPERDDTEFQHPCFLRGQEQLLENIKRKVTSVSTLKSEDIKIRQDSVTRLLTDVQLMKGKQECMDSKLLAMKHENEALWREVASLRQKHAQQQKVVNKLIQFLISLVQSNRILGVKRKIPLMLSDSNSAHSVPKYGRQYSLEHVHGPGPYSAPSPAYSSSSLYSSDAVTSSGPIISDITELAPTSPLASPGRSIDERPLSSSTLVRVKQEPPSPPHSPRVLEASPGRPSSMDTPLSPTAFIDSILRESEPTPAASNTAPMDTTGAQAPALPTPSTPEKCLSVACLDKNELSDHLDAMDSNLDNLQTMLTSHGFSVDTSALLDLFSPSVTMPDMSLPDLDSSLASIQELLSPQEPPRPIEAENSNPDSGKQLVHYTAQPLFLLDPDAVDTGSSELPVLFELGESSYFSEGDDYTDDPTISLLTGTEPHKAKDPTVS

[16] = molecular target: T5, Serine/threonine-protein phosphatase (Homo sapiens, UniProt Q9BPW0); experiment: Counterscreen for inhibitors of PP1: fluorescence-based biochemical high throughput dose response assay to identify inhibitors of Protein Phosphatase 5 (PP5). [Related pubchem assays: 2034 (Summary (PP5 inhibitors)), 1987 (PP5 inhibitors in singlate), 2235 (PP1 inhibitors in singlate)]
T5 sequence (Q9BPW0 whole entry): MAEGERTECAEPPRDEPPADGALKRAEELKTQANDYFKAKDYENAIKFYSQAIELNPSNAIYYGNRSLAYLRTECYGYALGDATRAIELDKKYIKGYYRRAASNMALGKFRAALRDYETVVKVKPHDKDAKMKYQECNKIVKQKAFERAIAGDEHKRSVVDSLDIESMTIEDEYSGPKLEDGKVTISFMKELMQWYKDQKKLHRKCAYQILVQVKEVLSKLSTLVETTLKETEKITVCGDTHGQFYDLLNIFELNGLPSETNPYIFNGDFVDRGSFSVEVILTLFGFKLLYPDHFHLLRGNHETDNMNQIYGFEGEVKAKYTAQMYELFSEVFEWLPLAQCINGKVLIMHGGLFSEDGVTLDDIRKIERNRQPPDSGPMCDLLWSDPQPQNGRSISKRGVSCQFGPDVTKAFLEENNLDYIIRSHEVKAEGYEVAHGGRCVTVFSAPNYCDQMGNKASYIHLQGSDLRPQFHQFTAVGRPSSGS

[17] = molecular target: Serine/threonine-protein phosphatase PP1-alpha catalytic subunit (Homo sapiens, UniProt P62136); experiment: PP1 phosphatase inhibitors, dose response, biochemical, fluorescence (AID 2403);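 further: phosphatase turnover of OMFP into fluorescent 3-O-methylfluorescein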
Sequence of Serine/threonine-protein phosphatase PP1-alpha catalytic subunit (P62136 whole entry): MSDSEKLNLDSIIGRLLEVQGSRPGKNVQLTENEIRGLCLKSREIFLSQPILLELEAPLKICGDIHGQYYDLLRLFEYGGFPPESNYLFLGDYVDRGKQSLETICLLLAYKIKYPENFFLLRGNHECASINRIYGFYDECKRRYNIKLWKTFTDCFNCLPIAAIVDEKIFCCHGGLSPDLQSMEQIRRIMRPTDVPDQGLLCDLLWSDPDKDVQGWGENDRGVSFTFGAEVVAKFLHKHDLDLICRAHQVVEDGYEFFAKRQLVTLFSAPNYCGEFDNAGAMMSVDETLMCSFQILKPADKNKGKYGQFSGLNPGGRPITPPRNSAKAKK

Sequence of Serine/threonine-protein phosphatase (Candida dubliniensis (strain CD36 / CBS 7987 / NCPF 3949 / NRRLY-17841) (Yeast), UniProt B9W6M3) (B9W6M3 whole entry, the tested form may be a part): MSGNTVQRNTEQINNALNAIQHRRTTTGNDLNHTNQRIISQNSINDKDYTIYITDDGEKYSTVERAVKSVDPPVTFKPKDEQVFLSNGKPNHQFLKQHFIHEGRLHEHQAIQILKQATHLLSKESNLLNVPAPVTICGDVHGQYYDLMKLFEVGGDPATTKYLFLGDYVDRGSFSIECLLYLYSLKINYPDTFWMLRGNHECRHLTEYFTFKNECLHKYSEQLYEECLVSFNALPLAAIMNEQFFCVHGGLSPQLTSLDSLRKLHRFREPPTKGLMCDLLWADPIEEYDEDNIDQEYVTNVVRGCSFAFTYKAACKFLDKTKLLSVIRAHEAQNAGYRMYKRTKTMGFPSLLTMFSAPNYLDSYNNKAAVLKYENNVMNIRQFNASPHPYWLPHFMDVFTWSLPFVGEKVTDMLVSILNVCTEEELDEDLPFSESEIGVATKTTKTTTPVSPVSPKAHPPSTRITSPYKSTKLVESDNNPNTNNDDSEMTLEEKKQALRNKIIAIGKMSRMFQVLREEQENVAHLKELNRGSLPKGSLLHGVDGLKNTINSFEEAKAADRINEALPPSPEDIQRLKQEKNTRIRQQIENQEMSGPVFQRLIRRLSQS
Sequence of ATP-dependent molecular chaperone HSP82 (C4YTQ8 whole entry): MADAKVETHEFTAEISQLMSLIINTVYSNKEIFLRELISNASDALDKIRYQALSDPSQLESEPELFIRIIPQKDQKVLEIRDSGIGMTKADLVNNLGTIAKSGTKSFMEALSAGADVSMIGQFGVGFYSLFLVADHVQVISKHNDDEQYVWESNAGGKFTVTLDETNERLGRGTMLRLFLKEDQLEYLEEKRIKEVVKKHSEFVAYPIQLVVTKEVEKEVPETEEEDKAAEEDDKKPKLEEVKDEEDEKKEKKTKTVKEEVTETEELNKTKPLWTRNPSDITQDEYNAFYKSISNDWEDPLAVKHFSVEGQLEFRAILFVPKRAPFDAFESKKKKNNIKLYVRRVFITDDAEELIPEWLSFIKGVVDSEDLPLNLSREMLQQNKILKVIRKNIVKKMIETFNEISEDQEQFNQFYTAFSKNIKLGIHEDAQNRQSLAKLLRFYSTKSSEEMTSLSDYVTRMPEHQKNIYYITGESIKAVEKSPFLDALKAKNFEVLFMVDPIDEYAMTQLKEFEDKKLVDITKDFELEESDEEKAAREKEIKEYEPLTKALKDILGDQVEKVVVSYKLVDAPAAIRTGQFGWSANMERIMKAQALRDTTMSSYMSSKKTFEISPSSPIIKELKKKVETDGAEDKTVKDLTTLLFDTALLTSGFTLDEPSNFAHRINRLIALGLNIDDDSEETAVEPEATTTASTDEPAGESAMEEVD
Sequence of Procathepsin L (P07711 whole entry): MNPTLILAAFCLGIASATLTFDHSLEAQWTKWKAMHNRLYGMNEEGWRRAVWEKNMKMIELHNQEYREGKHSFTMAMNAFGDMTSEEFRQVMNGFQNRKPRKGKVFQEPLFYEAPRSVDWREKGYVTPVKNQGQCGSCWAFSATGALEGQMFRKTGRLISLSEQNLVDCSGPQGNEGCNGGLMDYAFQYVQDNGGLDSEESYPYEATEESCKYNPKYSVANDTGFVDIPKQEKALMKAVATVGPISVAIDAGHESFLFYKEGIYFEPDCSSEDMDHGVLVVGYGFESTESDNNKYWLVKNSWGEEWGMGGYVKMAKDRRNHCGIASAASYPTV
Sequence of Leucine aminopeptidase (Q8IL11 whole entry): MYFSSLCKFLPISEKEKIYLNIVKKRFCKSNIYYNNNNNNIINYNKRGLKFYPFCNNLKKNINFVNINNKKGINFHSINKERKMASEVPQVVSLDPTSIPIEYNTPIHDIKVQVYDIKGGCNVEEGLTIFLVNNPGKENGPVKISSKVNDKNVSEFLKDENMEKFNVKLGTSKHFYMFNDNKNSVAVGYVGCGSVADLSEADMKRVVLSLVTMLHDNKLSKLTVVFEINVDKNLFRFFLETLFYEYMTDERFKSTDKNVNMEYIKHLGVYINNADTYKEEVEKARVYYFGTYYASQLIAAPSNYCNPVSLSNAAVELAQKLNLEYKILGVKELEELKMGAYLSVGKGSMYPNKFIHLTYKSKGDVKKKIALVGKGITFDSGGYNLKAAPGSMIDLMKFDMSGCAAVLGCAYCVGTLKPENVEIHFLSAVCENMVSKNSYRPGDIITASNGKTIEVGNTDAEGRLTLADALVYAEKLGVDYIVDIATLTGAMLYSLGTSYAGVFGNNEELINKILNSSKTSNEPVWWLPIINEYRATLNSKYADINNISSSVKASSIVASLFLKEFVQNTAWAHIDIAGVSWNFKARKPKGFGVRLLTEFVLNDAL
Sequence of Sphingosine 1-phosphate receptor 3 (Q99500 whole entry): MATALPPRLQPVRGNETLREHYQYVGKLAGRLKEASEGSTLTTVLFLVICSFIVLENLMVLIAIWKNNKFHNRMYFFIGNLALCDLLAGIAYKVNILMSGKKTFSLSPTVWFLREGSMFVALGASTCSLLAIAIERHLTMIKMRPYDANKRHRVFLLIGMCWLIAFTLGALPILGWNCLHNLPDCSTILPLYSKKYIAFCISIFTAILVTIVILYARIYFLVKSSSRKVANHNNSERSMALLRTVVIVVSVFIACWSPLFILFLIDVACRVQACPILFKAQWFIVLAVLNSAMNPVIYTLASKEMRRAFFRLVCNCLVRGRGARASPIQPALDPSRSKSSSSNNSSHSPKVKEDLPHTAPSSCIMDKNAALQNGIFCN
Sequence of Mothers against decapentaplegic homolog 3 (P84022 whole entry): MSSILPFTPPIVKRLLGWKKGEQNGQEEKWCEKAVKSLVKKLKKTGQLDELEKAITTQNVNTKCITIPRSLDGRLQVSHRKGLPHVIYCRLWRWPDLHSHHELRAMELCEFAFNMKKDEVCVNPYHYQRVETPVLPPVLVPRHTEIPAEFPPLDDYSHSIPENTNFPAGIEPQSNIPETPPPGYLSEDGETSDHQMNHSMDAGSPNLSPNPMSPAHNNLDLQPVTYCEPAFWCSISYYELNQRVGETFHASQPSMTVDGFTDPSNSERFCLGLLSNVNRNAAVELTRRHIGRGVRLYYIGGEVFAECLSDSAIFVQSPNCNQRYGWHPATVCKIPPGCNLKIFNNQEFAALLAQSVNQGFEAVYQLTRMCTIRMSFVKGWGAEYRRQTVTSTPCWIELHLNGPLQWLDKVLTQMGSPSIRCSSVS
Sequence of 5-hydroxytryptamine receptor 1E (P28566 whole entry): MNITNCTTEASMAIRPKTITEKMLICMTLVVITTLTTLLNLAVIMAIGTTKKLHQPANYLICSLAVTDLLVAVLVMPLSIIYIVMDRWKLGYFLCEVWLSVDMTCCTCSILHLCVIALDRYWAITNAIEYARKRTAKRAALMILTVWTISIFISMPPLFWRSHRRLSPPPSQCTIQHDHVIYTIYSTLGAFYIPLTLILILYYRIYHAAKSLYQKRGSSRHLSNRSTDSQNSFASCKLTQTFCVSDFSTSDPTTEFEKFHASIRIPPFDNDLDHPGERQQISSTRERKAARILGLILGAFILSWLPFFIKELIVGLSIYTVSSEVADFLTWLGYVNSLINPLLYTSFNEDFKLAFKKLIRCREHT

Oc1c(C(Nc2nccs2)c2ccc(C(F)(F)F)cc2)ccc2cccnc12 (configuration not stated)
EC50 [1]: < 0.1 µM (active)
EC50 [2]: > 12 µM (not active)
EC50 [3]: 1.01 µM (active)
AC50 [4]: 3.69 µM (active)
EC50 [5]: 11.2 µM (active)
EC50 [6]: > 180 µM (inactive)
EC50 [7]: 8.36 µM (active)
EC50 (cells): 1.04 µM (active)
EC50 [8]: > 160 µM (inactive)

O=C1NC(=O)N(c2ccc3c(c2)OCO3)C(=O)/C1=C/c1ccc(N2CCCC2)o1
EC50 [9]: > 100 µM (active)
IC50 (Insulin-degrading enzyme): 20.7 µM (not active)
IC50 [10]: > 55.7 µM (not active)

CCN(CC)c1ccc(NC(=O)CSc2nc(C)cc(O)n2)cc1
IC50 (Aspartyl aminopeptidase): > 73.5 µM (not active)
IC50 (Leucine aminopeptidase): 3.06 µM (active)
IC50 (Procathepsin L): > 59.6 µM (not active)

Cc1ccc(C(O)(C(=O)NNC(=O)CN2CCN(C)CC2)c2ccc(C)cc2)cc1
EC50 [11]: 64.1 µM (not active)

O=C(Nc1ccc(Br)cc1)C(c1ccccc1)c1ccccc1
IC50 [12]: 1.33 µM (active)
IC50 [13]: > 50 µM (not active)

COc1cc(C(c2cc3c(cc2O)OCO3)N2CCCCC2)cc(OC)c1OC (configuration not stated)
IC50 [14]: 12.5 µM (not active)

O=C(O)c1cc(-c2ccc(Cl)c(Cl)c2)n(-c2ccccc2)n1
EC50 [15]: > 260 µM (inactive)
IC50 [16]: > 67 µM (not active)
IC50 [17]: 5.82 µM (active)
